# Results taken from BindingDB's records for doi:10.1046/j.1460-9568.2003.02744.x (University of Innsbruck, 2003).
# Tests used:
# [1] = target: Kappa-type opioid receptor (Rattus norvegicus, UniProt P34975)
# Mu-type opioid receptor = Mu-type opioid receptor (Rattus norvegicus, UniProt P33535)
# [2] = target: Delta-type opioid receptor (Rattus norvegicus, UniProt P33533)
# Delta-type opioid receptor, sequence (P33533 whole entry): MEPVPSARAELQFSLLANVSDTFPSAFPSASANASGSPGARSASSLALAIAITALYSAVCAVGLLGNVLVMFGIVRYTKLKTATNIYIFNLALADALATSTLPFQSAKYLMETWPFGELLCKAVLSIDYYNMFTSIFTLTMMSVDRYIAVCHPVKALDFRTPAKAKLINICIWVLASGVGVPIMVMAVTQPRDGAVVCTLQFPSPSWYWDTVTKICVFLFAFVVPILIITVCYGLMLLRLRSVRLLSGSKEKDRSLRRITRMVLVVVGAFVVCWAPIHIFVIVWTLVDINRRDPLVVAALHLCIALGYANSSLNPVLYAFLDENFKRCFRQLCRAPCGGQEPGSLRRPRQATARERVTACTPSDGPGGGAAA
# Mu-type opioid receptor, sequence (P33535 whole entry): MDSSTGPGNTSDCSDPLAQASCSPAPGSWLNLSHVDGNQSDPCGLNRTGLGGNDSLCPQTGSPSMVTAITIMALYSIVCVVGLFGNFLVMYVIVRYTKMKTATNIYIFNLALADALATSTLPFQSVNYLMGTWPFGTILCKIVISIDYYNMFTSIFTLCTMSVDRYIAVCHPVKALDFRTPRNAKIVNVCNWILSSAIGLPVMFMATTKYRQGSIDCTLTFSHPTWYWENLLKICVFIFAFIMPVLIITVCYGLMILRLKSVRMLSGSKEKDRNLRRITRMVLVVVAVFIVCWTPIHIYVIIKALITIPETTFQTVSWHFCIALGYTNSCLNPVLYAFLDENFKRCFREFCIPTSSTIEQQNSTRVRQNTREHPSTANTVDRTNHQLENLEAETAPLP
# Kappa-type opioid receptor, sequence (P34975 whole entry): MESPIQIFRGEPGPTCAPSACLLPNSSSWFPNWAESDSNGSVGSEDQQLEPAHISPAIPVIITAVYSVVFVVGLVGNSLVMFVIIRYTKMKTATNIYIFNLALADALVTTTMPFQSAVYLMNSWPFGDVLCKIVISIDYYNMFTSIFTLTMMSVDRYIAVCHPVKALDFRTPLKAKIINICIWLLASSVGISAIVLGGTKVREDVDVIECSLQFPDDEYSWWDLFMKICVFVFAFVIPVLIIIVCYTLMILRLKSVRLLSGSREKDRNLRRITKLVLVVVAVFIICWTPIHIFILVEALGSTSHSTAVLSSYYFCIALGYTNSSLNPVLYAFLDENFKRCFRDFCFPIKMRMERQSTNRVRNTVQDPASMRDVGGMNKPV
SMILES,Ki [1],Ki (Mu-type opioid receptor),Ki [2]
COC12CCC(=O)C3(C)Oc4c(O)ccc5c4C31CCN(C)C2C5 (stereo unspecified) [NSC_125489],25.2 nM,0.48 nM,–
CC(C)[C@H](NC(=O)[C@H](CCC(=O)O)NC(=O)[C@H](Cc1ccccc1)NC(=O)[C@@H](C)NC(=O)[C@@H](N)Cc1ccc(O)cc1)C(=O)N[C@H](C(=O)NCC(N)=O)C(C)C [Tyr-D-Ala-Phe-Glu-Val-Val-GlyNH2],–,–,48.3 nM
CCO[C@@]12Cc3c([nH]c4ccccc34)[C@]3(C)Oc4c(O)ccc5c4[C@@]31CCN(CC1CC1)C2C5 [HS-378],–,–,528 nM
Oc1ccc2c3c1OC1c4[nH]c5c(c4CC4(O)CN(CCC314)C(C1CC1)C2)CC1(O)CN2CCC13c1c(ccc(O)c1OC53)CC2C1CC1 (stereo unspecified) [CAS_105618-26-6],38.8 nM,–,–
COc1cccc2c1C13CCN(CC4CC4)C(C2)C1(OC)CCC(=O)C3 (stereo unspecified) [NSC_3081671],–,15.1 nM,–
